Reference: the supplement of paper PMC11061612

Columns and labels:
Test in all cases: Bliss excess, mean over the matrix (fraction); higher = more synergy
[1] = system: HCC-827 (Lung Adenocarcinoma)
Procedure, shortened: (§1)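 Cell lines in DMEM/F12 or RPMI with 10% FBS were plated in 1536-well plates, held 24 hours at 37°C, 5% CO2, then given two-drug dose matrices for 72 hours (DMSO typically 0.2%). Viability was read by CellTiter-Glo 2.0 luminescence and scaled as inhibition from 0 (vehicle wells) to 1 (blank wells). Combination Emax is the second-highest inhibition in the matrix; Bliss excess is observed combination effect minus expected EA + EB − EA·EB, EA and EB being single-agent effects.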

[2] = system: 647-V (Bladder Carcinoma)
Procedure, shortened: as §1

A172 (Glioblastoma) = system: A172 (Glioblastoma)
Procedure, shortened: as §1

[3] = system: BICR78 (Oral Cavity Carcinoma)
Procedure, shortened: as §1

[4] = system: HCT-116 (Colorectal Carcinoma)
Procedure, shortened: as §1

[5] = system: TYK-nu (Ovarian Carcinoma)
Procedure, shortened: as §1

[6] = system: HCC1143 (Breast Carcinoma)
Procedure, shortened: as §1

[7] = system: CAL-39 (Other Solid Carcinomas)
Procedure, shortened: as §1

[8] = system: WSU-DLCL2 (B-Cell Non-Hodgkin's Lymphoma)
Procedure, shortened: as §1

[9] = system: SW948 (Colorectal Carcinoma)
Procedure, shortened: as §1

[10] = system: U-118-MG (Low Grade Glioma)
Procedure, shortened: as §1

[11] = system: DOK (Oral Cavity Carcinoma)
Procedure, shortened: as §1

H4 (Low Grade Glioma) = system: H4 (Low Grade Glioma)
Procedure, shortened: as §1

[12] = system: YT (Other Blood Carcinomas)
Procedure, shortened: as §1

[13] = system: RCC10RGB (Kidney Carcinoma)
Procedure, shortened: as §1

EW-22 (Ewing's Sarcoma) = system: EW-22 (Ewing's Sarcoma)
Procedure, shortened: as §1

[14] = system: P31-FUJ (Acute Myeloid Leukemia)
Procedure, shortened: as §1

[15] = system: GDM-1 (Acute Myeloid Leukemia)
Procedure, shortened: as §1

[16] = system: SKN-3 (Head and Neck Carcinoma)
Procedure, shortened: as §1

Saos-2 (Osteosarcoma) = system: Saos-2 (Osteosarcoma)
Procedure, shortened: as §1

| SMILES | Bliss excess [1] | Bliss excess [2] | Bliss excess (A172 (Glioblastoma)) | Bliss excess [3] | Bliss excess [4] | Bliss excess [5] | Bliss excess [6] | Bliss excess [7] | Bliss excess [8] | Bliss excess [9] | Bliss excess [10] | Bliss excess [11] | Bliss excess (H4 (Low Grade Glioma)) | Bliss excess [12] | Bliss excess [13] | Bliss excess (EW-22 (Ewing's Sarcoma)) | Bliss excess [14] | Bliss excess [15] | Bliss excess [16] | Bliss excess (Saos-2 (Osteosarcoma)) |
| --- | --- | --- | --- | --- | --- | --- | --- | --- | --- | --- | --- | --- | --- | --- | --- | --- | --- | --- | --- | --- |
| Cc1c2c(nn1C)CSCc1cc(n(C)n1)CSc1cc(c3ccccc3c1)OCCCc1c(C(=O)O)n(C)c3c-2c(Cl)ccc13 [AZD5991] + C=CCn1c(=O)c2cnc(Nc3ccc(N4CCN(C)CC4)cc3)nc2n1-c1cccc(C(C)(C)O)n1 [AZD1775] (first compound max 1 µM, partner max 1 µM) | -0.0243 | 0.059 | 0.0736 | -0.0034 | 0.0226 | 0.0279 | 0.0689 | 0.0957 | -0.0245 | -0.13 | -0.0014 | -0.0235 | -0.042 | -0.0725 | -0.0182 | 0.0756 | -0.0127 | 0.0207 | 0.0116 | – |
| Cc1cc2ncnn2cc1Nc1ncc2c(n1)n(C1CCOCC1)c(=O)n2C [AZD7648] + O=C(c1cc(Cc2n[nH]c(=O)c3ccccc23)ccc1F)N1CCN(C(=O)C2CC2)CC1 [Olaparib] (first compound max 10 µM, 7x7, partner max 10 µM) | -0.028 | -0.0098 | -0.007 | -0.0056 | -0.0502 | -0.0819 | -0.0401 | -0.0323 | -0.0096 | – | -0.0441 | -0.0334 | 0.0404 | -0.0004 | -0.0619 | -0.0664 | -0.0511 | -0.011 | -0.0199 | -0.0322 |
| CN(C)CCCOc1ccc(-c2ccc3ncc4c(c3c2)n(C2CCOCC2)c(=O)n4C)cn1 [AZD0156] + CCN(CCO)CCCOc1ccc2c(Nc3cc(CC(=O)Nc4cccc(F)c4)[nH]n3)ncnc2c1 [AZD2811] (first compound max 1 µM, 7x7, partner max 1 µM) | -0.0088 | 0.0365 | 0.0239 | -0.047 | 0.0233 | -0.0179 | 0.0372 | 0.0177 | 0.0362 | – | 0.0017 | -0.0527 | -0.0077 | 0.0041 | -0.039 | 0.005 | -0.0314 | -0.0232 | -0.0239 | 0.0088 |
| CCc1c2c(nc3ccc(O)cc13)-c1cc3c(c(=O)n1C2)COC(=O)[C@]3(O)CC [SN-38] + O=C(c1cc(Cc2n[nH]c(=O)c3ccccc23)ccc1F)N1CCN(C(=O)C2CC2)CC1 [Olaparib] (first compound max 0.3 µM, 7x7, partner max 10 µM) | 0.052 | – | 0.0639 | 0.0587 | 0.104 | -0.0067 | – | 0.081 | 0.0564 | 0.0993 | – | 0.0284 | 0.0958 | -0.0409 | – | 0.0213 | 0.0648 | – | – | 0.0247 |
| CN(C)CCCOc1ccc(-c2ccc3ncc4c(c3c2)n(C2CCOCC2)c(=O)n4C)cn1 [AZD0156] + C[C@@H]1COCCN1C2=NC(=NC(=C2)C3(CC3)[S@](=N)(=O)C)C4=C5C=CNC5=NC=C4 [AZD6738] (first compound max 1 µM, 7x7, partner max 10 µM) | -0.003 | 0.0039 | 0.024 | 0.0119 | -0.0047 | -0.0143 | 0.0323 | 0.0017 | 0.0712 | – | 0.0189 | -0.0395 | -0.0404 | 0.0104 | -0.0129 | 0.0143 | -0.0462 | -0.0439 | 0.0368 | -0.0133 |
| CS(=O)(=O)CCNCc1ccc(-c2ccc3ncnc(Nc4ccc(OCc5cccc(F)c5)c(Cl)c4)c3c2)o1 [Lapatinib] + NC1(c2ccc(-c3nc4ccn5c(=O)[nH]nc5c4cc3-c3ccccc3)cc2)CCC1 [MK-2206] (first compound max 10 µM, 7x7, partner max 10 µM) | – | – | – | 0.0068 | -0.0347 | -0.0165 | -0.0213 | -0.0006 | 0.0058 | 0.049 | – | 0.0212 | 0.0054 | -0.0321 | – | 0.0308 | -0.062 | – | -0.0508 | -0.0026 |
| C=CCn1c(=O)c2cnc(Nc3ccc(N4CCN(C)CC4)cc3)nc2n1-c1cccc(C(C)(C)O)n1 [AZD1775] + C[C@@H]1COCCN1C2=NC(=NC(=C2)C3(CC3)[S@](=N)(=O)C)C4=C5C=CNC5=NC=C4 [AZD6738] (first compound max 1 µM, partner max 10 µM) | -0.0286 | 0.0662 | 0.0433 | – | 0.0252 | -0.0711 | 0.0108 | 0.0822 | 0.0763 | – | -0.0075 | 0.0081 | -0.0949 | 0.0305 | -0.137 | -0.0218 | -0.008 | 0.0041 | 0.0234 | 0.0071 |
| Cc1c2c(nn1C)CSCc1cc(n(C)n1)CSc1cc(c3ccccc3c1)OCCCc1c(C(=O)O)n(C)c3c-2c(Cl)ccc13 [AZD5991] + C[C@@H]1COCCN1C2=NC(=NC(=C2)C3(CC3)[S@](=N)(=O)C)C4=C5C=CNC5=NC=C4 [AZD6738] (first compound max 1 µM, 7x7, partner max 10 µM) | – | 0.0802 | -0.0012 | -0.0327 | 0.0475 | -0.0265 | 0.0032 | -0.0411 | 0.0004 | 0.0387 | 0.0187 | – | 0.0274 | -0.0498 | 0.0332 | 0.0236 | -0.0033 | 0.0863 | 0.0678 | -0.0135 |
| C[C@@H]1COCCN1c1cc(C2([S@](C)(=N)=O)CC2)nc(-c2ccnc3[nH]ccc23)n1 [AZD6738] + O=C(c1cc(Cc2n[nH]c(=O)c3ccccc23)ccc1F)N1CCN(C(=O)C2CC2)CC1 [Olaparib] (first compound max 10 µM, 7x7, partner max 10 µM) | -0.0086 | 0.0753 | -0.0398 | -0.0431 | 0.0928 | -0.0674 | -0.0284 | – | -0.0119 | – | 0.0125 | 0.0048 | 0.0238 | -0.0376 | 0.0483 | 0.02 | -0.0848 | -0.0135 | -0.0217 | 0.0118 |
| CS(=O)(=O)CCNCc1ccc(-c2ccc3ncnc(Nc4ccc(OCc5cccc(F)c5)c(Cl)c4)c3c2)o1 [Lapatinib] + Cn1cnc2c(F)c(Nc3ccc(Br)cc3Cl)c(C(=O)NOCCO)cc21 [Selumetinib] (first compound max 10 µM, 7x7, partner max 10 µM) | – | – | – | -0.0343 | -0.0864 | – | – | -0.0923 | 0.0044 | -0.0086 | – | -0.113 | -0.0159 | 0.0147 | – | -0.0366 | -0.0118 | – | – | 0.0251 |
| CCN(CCO)CCCOc1ccc2c(Nc3cc(CC(=O)Nc4cccc(F)c4)[nH]n3)ncnc2c1 [AZD2811] + C[C@@H]1COCCN1C2=NC(=NC(=C2)C3(CC3)[S@](=N)(=O)C)C4=C5C=CNC5=NC=C4 [AZD6738] (first compound max 1 µM, 7x7, partner max 10 µM) | -0.0856 | 0.0177 | -0.0252 | -0.0215 | -0.0825 | -0.0244 | -0.0291 | 0.0015 | -0.0431 | – | -0.0337 | -0.0502 | -0.0536 | -0.0204 | -0.0472 | -0.0503 | -0.0332 | -0.0749 | -0.0167 | -0.0218 |
| CCN(CCO)CCCOc1ccc2c(Nc3cc(CC(=O)Nc4cccc(F)c4)[nH]n3)ncnc2c1 [AZD2811] + O=C(c1cc(Cc2n[nH]c(=O)c3ccccc23)ccc1F)N1CCN(C(=O)C2CC2)CC1 [Olaparib] (first compound max 1 µM, 7x7, partner max 10 µM) | -0.0162 | 0.0433 | 0.044 | -0.0114 | -0.0109 | -0.0152 | 0.015 | 0.0017 | 0.0463 | – | 0.0186 | -0.0086 | -0.0046 | 0.0623 | -0.0004 | -0.0612 | -0.0895 | -0.0709 | -0.0236 | 0.0395 |
| C=CCn1c(=O)c2cnc(Nc3ccc(N4CCN(C)CC4)cc3)nc2n1-c1cccc(C(C)(C)O)n1 [AZD1775] + O=C(c1cc(Cc2n[nH]c(=O)c3ccccc23)ccc1F)N1CCN(C(=O)C2CC2)CC1 [Olaparib] (first compound max 1 µM, partner max 10 µM) | -0.042 | 0.0046 | -0.0226 | 0.0107 | -0.0239 | -0.108 | -0.0675 | -0.0223 | -0.0184 | – | -0.0766 | -0.0236 | -0.12 | -0.008 | -0.0166 | 0.0148 | -0.0809 | 0.0017 | -0.0512 | -0.0422 |
| CN(C)CCCOc1ccc(-c2ccc3ncc4c(c3c2)n(C2CCOCC2)c(=O)n4C)cn1 [AZD0156] + C=CCn1c(=O)c2cnc(Nc3ccc(N4CCN(C)CC4)cc3)nc2n1-c1cccc(C(C)(C)O)n1 [AZD1775] (first compound max 1 µM, partner max 1 µM) | 0.0075 | 0.0001 | -0.0431 | -0.0107 | -0.0016 | -0.0836 | -0.0802 | -0.0326 | -0.0119 | – | -0.0322 | -0.0143 | -0.0516 | -0.0273 | -0.0775 | 0.006 | 0.0046 | -0.0566 | -0.0276 | -0.0379 |
| Cc1nc(-c2cn3c(n2)-c2ccc(-c4cnn(C(C)(C)C(N)=O)c4)cc2OCC3)n(C(C)C)n1 [Taselisib] + O=C(Nc1ccc2[nH]nc(-c3ccncc3)c2c1)[C@@H]1CCN(CC(=O)N2CCN(c3ccc(-c4ncccn4)cc3)CC2)C1 [SCH772984] (first compound max 10 µM, 7x7, partner max 5 µM) | – | – | – | -0.011 | 0.138 | – | – | 0.0609 | 0.0062 | 0.032 | – | -0.0218 | -0.0007 | -0.0084 | – | 0.0152 | 0.0477 | – | – | 0.0665 |
| CCN(CCO)CCCOc1ccc2c(Nc3cc(CC(=O)Nc4cccc(F)c4)[nH]n3)ncnc2c1 [AZD2811] + C=CCn1c(=O)c2cnc(Nc3ccc(N4CCN(C)CC4)cc3)nc2n1-c1cccc(C(C)(C)O)n1 [AZD1775] (first compound max 1 µM, partner max 1 µM) | 0.0272 | 0.0491 | -0.0033 | 0.0338 | 0.0524 | -0.0586 | 0.0147 | -0.0078 | 0.013 | – | 0.0469 | -0.0017 | -0.0637 | 0.0367 | -0.0716 | 0.0527 | -0.0615 | -0.0484 | -0.0154 | 0.029 |
